Experimental data reported in PMC6017745 (Molecules : A Journal of Synthetic Chemistry and Natural …, 2018).
Entries after “also recorded” stand apart in the source; their conditions may differ. Where two headings read alike, the source gives them in different places. Values belong to the compound of their own block, whether it stands above or below them.

Assays:
Lewis rats = experiment: Food consumption during subchronic administration to rats (metabolic cages); assay type: in vivo, rat; settings: s.c. 3 mg/kg/daily for five days
[1] = test system: histamine concentration in rat brain; experiment: Post-mortem cerebral histamine concentration (ELISA); assay type: in vivo; settings: rats, s.c. 3 mg/kg/daily for five days
MAO-A = experiment: Post-mortem cerebral MAO-A activity (radioisotopic assay); assay type: in vivo, rat; settings: cerebral cortex, rats s.c. 3 mg/kg/daily for five days, means ± SEM
Protocol: (§1) Post-mortem brain analyses included estimation of the amine neurotransmitters concentrations as well as the activities of the degradative enzymes HNMT and MAO-A and MAO-B. The rats were sacrificed 24 h after the last injection. The brains were collected, separated into hypothalamus and the cerebral cortex according to the Glowinski and Iversen method, immediately frozen in liquid nitrogen and kept at −80 °C until assayed. […] For MAO-A serotonin (5-[2-^14C]-hydroxytryptamine binoxalate) and for MAO-B β-[ethyl-1-^14C]-phenylethylamine hydrochloride were used as substrates and respectively, clorgyline (MAO-A) and deprenyl (MAO-B) (final conc. 10^−9 M) as the enzymes inhibitors. Protein was measured by Lowry method.

MAO-B = experiment: Post-mortem cerebral MAO-B activity (radioisotopic assay); assay type: in vivo, rat; settings: cerebral cortex, rats s.c. 3 mg/kg/daily for five days, means ± SEM
Protocol: as §1

HNMT = experiment: Post-mortem cerebral HNMT activity (radioisotopic assay); assay type: in vivo, rat; settings: for HNMT activity CTX: cerebral cortex; for HNMT activity CTX / HNMT activity HTH: rats s.c. 3 mg/kg/daily for five days, means ± SEM; for HNMT activity HTH: hypothalamus
[2] = test system: dopamine, noradrenaline and serotonin concentration in rat brain; experiment: Post-mortem cerebral concentration of biogenic amines DA, NA, 5-HT (RIA); assay type: in vivo; settings: rats
H1 receptor [3] = molecular target: T1, H1 receptor (Cavia porcellus, UniProt P31389); design: The excised ileum was placed in phosphate buffer at room temperature; from tissue; host or cells: guinea pig ileum; settings: guinea pig ileum, NA = inactive, cited from earlier work
H1 receptor [4] = molecular target: T1, H1 receptor; experiment: H1 antagonistic effects in vitro using the guinea pig ileum
H3 receptor = H3 receptor (Cavia porcellus, UniProt Q9JI35); experiment: H3 antagonistic activity against H3 agonist-induced inhibition of electrically evoked contraction of guinea-pig jejunum; settings: vs (R)-α-methylhistamine, Schild analysis; for pA2 (SEM) H3: guinea pig jejunum; for Kb: pA2 (SEM) H3, guinea pig jejunum
[5] = molecular target: T2, rat histamine H3 receptor (rH3R) (Rattus norvegicus, UniProt Q9QYN8); experiment: biochemical
[6] = molecular target: T2, rat histamine H3 receptor (rH3R); settings: read-out: KD saturation binding at rH3R; HEK-293T membranes, two hours at 25 °C
[7] = molecular target: human histamine H3 receptor (hH3R) (Homo sapiens, UniProt Q9Y5N1); settings: read-out: KD saturation binding at hH3R
Sequence of human histamine H3 receptor (hH3R) (Q9Y5N1 whole entry): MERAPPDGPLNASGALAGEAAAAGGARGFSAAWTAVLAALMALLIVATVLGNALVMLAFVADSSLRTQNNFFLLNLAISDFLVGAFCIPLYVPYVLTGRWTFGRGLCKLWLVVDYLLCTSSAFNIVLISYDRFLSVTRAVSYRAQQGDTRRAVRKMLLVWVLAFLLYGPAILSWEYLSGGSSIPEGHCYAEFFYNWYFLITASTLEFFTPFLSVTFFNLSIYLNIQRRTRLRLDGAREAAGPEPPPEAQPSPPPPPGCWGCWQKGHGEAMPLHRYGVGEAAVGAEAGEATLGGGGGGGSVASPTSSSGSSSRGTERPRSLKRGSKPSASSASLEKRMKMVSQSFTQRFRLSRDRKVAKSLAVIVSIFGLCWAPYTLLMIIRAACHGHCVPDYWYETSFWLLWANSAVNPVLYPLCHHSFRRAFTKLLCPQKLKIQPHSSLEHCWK

Sequence of H3 receptor (Q9JI35 whole entry): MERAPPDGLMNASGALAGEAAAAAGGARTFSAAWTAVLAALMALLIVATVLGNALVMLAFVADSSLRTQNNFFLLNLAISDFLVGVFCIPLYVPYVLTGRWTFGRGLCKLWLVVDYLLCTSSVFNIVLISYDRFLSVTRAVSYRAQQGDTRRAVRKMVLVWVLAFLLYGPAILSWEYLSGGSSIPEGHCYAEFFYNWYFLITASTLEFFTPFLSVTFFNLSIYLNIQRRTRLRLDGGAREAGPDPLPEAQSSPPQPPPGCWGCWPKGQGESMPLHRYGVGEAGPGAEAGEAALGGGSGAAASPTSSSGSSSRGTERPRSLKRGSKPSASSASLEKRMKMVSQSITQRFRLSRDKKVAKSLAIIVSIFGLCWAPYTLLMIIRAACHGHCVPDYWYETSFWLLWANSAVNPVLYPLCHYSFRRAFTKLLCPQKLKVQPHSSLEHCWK
T1 sequence (P31389 whole entry): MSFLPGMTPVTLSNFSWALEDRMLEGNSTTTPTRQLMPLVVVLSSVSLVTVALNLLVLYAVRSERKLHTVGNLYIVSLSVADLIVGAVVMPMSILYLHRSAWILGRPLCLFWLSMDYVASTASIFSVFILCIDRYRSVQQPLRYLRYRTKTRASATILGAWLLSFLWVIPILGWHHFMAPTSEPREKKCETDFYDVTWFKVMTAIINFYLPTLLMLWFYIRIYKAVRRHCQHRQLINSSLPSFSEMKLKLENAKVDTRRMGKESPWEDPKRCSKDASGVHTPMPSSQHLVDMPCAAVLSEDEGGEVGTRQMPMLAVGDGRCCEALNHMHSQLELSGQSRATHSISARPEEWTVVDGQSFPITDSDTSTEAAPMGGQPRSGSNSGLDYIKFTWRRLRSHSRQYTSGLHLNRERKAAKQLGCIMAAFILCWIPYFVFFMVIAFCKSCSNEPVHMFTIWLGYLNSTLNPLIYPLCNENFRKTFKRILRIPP
T2 sequence (Q9QYN8 whole entry): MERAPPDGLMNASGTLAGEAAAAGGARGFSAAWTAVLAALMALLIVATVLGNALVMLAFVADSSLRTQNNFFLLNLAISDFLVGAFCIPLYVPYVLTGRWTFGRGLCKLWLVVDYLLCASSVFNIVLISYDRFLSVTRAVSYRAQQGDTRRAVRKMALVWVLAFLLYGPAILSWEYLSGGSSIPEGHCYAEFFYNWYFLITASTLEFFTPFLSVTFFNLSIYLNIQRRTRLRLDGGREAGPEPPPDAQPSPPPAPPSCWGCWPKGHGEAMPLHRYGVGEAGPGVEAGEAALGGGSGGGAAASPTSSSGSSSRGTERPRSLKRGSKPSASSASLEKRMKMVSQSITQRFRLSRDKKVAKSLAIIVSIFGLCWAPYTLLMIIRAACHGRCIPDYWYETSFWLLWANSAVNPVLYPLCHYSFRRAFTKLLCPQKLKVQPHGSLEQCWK

SMILES: O=C(c1ccc(OCCCc2cnc[nH]2)cc1)C1CC1 [Ciproxifan, ciproxifan, reference compound]
effect on food intake (Lewis rats): caused a significant decrease in consumption | histamine concentration in the hypothalamus ([1]; 3 mg/kg): tended to be higher than in the untreated controls; also recorded: significantly higher than in ADS-531 injected rats | MAO-A activity CTX (MAO-A): 1654 ± 31.42 pmol/min/mg protein | MAO-B activity CTX (MAO-B): 1049 ± 56.16 pmol/min/mg protein | HNMT activity CTX (HNMT): 46.90 ± 3.59 pmol/min/mg protein | HNMT activity HTH (HNMT): 44.68 ± 5.50 pmol/min/mg protein

SMILES: CCCN1CCN(c2ncc(CCN(C)CCCc3ccccc3)s2)CC1 [Compound 2c, N-methyl-N-3-phenylalkyl-2-[2-(4-n-propylpiperazin-1-yl)-1,3-thiazol-5-yl]ethan-1-amine]
effect on food intake (Lewis rats; listed as ADS-531, 3 mg/kg): did not affect histamine concentration nor feeding behavior; also recorded: did not influence the food intake | cerebral histamine concentration ([1]; listed as ADS-531, 3 mg/kg): did not affect histamine concentration; also recorded: No significant changes | brain penetration ([2]; s.c. 3 mg/kg, 5 days): penetrated the brain | cerebral concentrations of dopamine, noradrenaline and serotonin ([2]; s.c. 3 mg/kg/daily for five days, listed as ADS-531, 3 mg/kg): affected dopamine, noradrenaline and serotonin concentration; also recorded: caused alterations in the concentrations of dopamine, noradrenaline, and serotonin; also recorded: increase of 5HT and NA level throughout the brain with the exception of the hypothalamus | MAO-A activity CTX (MAO-A): 1625 ± 49.99 pmol/min/mg protein | MAO-B activity CTX (MAO-B): 1044 ± 38.91 pmol/min/mg protein | HNMT activity CTX (HNMT): 48.19 ± 0.47 pmol/min/mg protein | HNMT activity HTH (HNMT): 37.58 ± 2.42 pmol/min/mg protein | effect on enzyme activities related to histamine metabolism in the brain (HNMT, MAO-B pathway) (HNMT; rats, s.c. 3 mg/kg/daily for five days): No significant changes | pA2 (SEM) H1 (H1 receptor [3]): did not possess any activity at H1 | pA2 (SEM) H1 (H1 receptor [3]; listed as ADS-531): did not exhibit any H1-antagonistic activity; also recorded: devoid of the antagonistic activity at the H1 receptor

Kb (H1 receptor [4]): 3160 nM | pA2 (SEM) H3 (H3 receptor): 8.38 | Kb (H3 receptor): 4.17 nM
SMILES: CCCN1CCN(c2ncc(CCCN(C)Cc3ccccc3)s2)CC1 [Compound 3a, N-Benzyl-N-methyl-3-[2-(4-n-piperazin-1-yl)-1,3-thiazol-5-yl]propan-1-amine]

pA2 (SEM) H3 (H3 receptor): 7.81 | Kb (H3 receptor): 15.5 nM
SMILES: CCCN1CCN(c2ncc(CCCN(C)CCc3ccccc3)s2)CC1 [Compound 3b, N-Methyl-N-(2-phenylethyl)-3-[2-(4-n-propylpiperazin-1-yl)-1,3-thiazol-5-yl]propan-1-amine]

pA2 (SEM) H3 (H3 receptor): 7.46 | Kb (H3 receptor): 34.7 nM
SMILES: CCCN1CCN(c2ncc(CCCN(C)CCCc3ccccc3)s2)CC1 [Compound 3c, N-Methyl-N-(3-phenylpropyl)-3-[2-(4-n-propylpropylpiperazin-1-yl)-1,3-thiazol-5-yl]-propan-1-amine]

Kb (H1 receptor [4]): 562 nM | pA2 (SEM) H1 (H1 receptor [4]; guinea pig ileum, vs histamine): 6.25 | Kb (H3 receptor): 11.2 nM
SMILES: CCCN1CCN(c2ncc(CCCCN(C)Cc3ccccc3)s2)CC1 [Compound 3d, N-Benzyl-N-methyl-4-[2-(4-n-propylpiperazin-1-yl)-1,3-thiazol-5-yl]butan-1-amine]

Kb (H3 receptor): 10.7 nM
SMILES: CCCN1CCN(c2ncc(CCCCN(C)CCc3ccccc3)s2)CC1 [Compound 3e, N-Methyl-N-(2-phenylethyl)-4-[2-(4-n-propylpiperazin-1-yl)-1,3-thiazol-5-yl]butan-1-amine]

pA2 (SEM) H3 (H3 receptor): 7.91 | Kb (H3 receptor): 12.3 nM
SMILES: CCCN1CCN(c2ncc(CCCCN(C)CCCc3ccccc3)s2)CC1 [Compound 3f, N-Methyl-N-(3-phenylpropyl)-4-[2-(4-n-propylpiperazin-1-yl)-1,3-thiazol-5-yl]butan-1-amine]

SMILES: S=C(NC1CCCCC1)N1CCC(c2cnc[nH]2)CC1 [Thioperamide, thioperamide, reference compound]
Ki [5]: 12.6 nM | Kb (H3 receptor): 3.39 nM

SMILES: CNCCc1cnc[nH]1 [[^3H]-N^α-MH, [^3H]-N^α-methylhistamine]
Kd [6]: 2.72 ± 0.34 nM | Kd [7]: 0.9 ± 0.08 nM
